Test systems include SW-620 colon; ACHN renal; NCI-H522 lung; K-562 leukemia; HCC-2998 colon; NCI/ADR-RES ovarian; SF-268 CNS; HL-60(TB) leukemia; DU-145 prostate; CAKI-1 renal; BT-549 breast.
Holding throughout (assay): growth of human tumour cells (NCI), 48 h

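48-hour exposure; five concentrations; linearly interpolated endpoints. TGI denotes the concentration required for complete inhibition of growth.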

In PubChem BioAssay (NCI) one finds TGI data, which are given here for twelve molecules.

For `CCN(CC)CCNc1nc2ccc([N+](=O)[O-])cc2[n+]([O-])n1`, the TGI in the experiment with SW-620 colon was 64.1 µM; with ACHN renal, greater than 100 µM; in the experiment on NCI-H522 lung, greater than 100 µM; with K-562 leukemia, 54.3 µM; in the experiment with HCC-2998 colon, 44.8 µM; with NCI/ADR-RES ovarian it was 70.5 µM. The TGI in the experiment on SF-268 CNS was greater than 100 µM; with HL-60(TB) leukemia, 17.9 µM; in the experiment with DU-145 prostate it was greater than 100 µM; with CAKI-1 renal, greater than 100 µM; in the experiment with BT-549 breast it was greater than 100 µM.
Consider `O=C(N/N=C/c1ccccc1)c1c(-c2cccnc2)cnc2ccccc12`, for which the TGI in the experiment on SW-620 colon, in the experiment with ACHN renal, in the experiment with NCI-H522 lung, in the experiment on K-562 leukemia, with HCC-2998 colon and in the experiment with NCI/ADR-RES ovarian was greater than 100 µM each time. In addition, the TGI in the experiment with SF-268 CNS, with HL-60(TB) leukemia, with DU-145 prostate, in the experiment on CAKI-1 renal and in the experiment with BT-549 breast was greater than 100 µM in each case.
With `COc1cc(/C=C2\C(=O)N(c3ccccc3)C(c3ccccc3)S2(=O)=O)cc(OC)c1OC` (configuration not stated), the TGI in the experiment on SW-620 colon, with ACHN renal, in the experiment on NCI-H522 lung, with K-562 leukemia, in the experiment with HCC-2998 colon and with NCI/ADR-RES ovarian was greater than 100 µM throughout. For the same molecule, the TGI with SF-268 CNS, in the experiment on HL-60(TB) leukemia, with DU-145 prostate, in the experiment on CAKI-1 renal and in the experiment with BT-549 breast was greater than 100 µM throughout.
As for `C[N+](C)(C)CC1CCCCCCCCCCC1=O` (configuration not stated), the TGI with SW-620 colon, in the experiment on ACHN renal, with NCI-H522 lung, with K-562 leukemia, in the experiment on HCC-2998 colon and in the experiment with NCI/ADR-RES ovarian was greater than 100 µM each time. In addition, the TGI in the experiment on SF-268 CNS, in the experiment on HL-60(TB) leukemia, with DU-145 prostate, in the experiment with CAKI-1 renal and in the experiment with BT-549 breast was greater than 100 µM each time.
For the molecule `CCOC(=O)N/N=C(/N)c1cccc([N+](=O)[O-])c1`, the TGI with SW-620 colon, in the experiment with ACHN renal, with NCI-H522 lung, with K-562 leukemia, with HCC-2998 colon and in the experiment with NCI/ADR-RES ovarian was greater than 100 µM each time. Further, the TGI in the experiment on SF-268 CNS, in the experiment with HL-60(TB) leukemia, in the experiment on DU-145 prostate, in the experiment with CAKI-1 renal and in the experiment with BT-549 breast was greater than 100 µM in each case.
Consider `CCOC(=O)c1cc(C(O)P2(=O)N(CC(C)(C)C)[C@@H]3CCCC[C@H]3N2CC(C)(C)C)cn1C(=O)OC(C)(C)C` (some centres not stated), for which the TGI was 32.6 µM in the experiment with SW-620 colon; greater than 100 µM in the experiment on ACHN renal; 31.1 µM in the experiment on NCI-H522 lung; 47 µM in the experiment on K-562 leukemia; 29.7 µM with HCC-2998 colon; 44.6 µM with NCI/ADR-RES ovarian. For the same molecule, the TGI with SF-268 CNS came to 38.4 µM; in the experiment with HL-60(TB) leukemia it was 48.6 µM; in the experiment on DU-145 prostate it was 36.2 µM; with CAKI-1 renal it was 51 µM; with BT-549 breast, 31.9 µM.
On to `COc1cc(C(=O)N(Cc2cccnc2)C(=S)N(Cc2cccnc2)C(=O)c2cc(OC)c(OC)c(OC)c2)cc(OC)c1OC`, for which the TGI in the experiment with SW-620 colon was greater than 100 µM; in the experiment with ACHN renal it was greater than 100 µM; with NCI-H522 lung it was 97.5 µM; in the experiment with K-562 leukemia, greater than 100 µM; in the experiment with HCC-2998 colon, 62.2 µM; with NCI/ADR-RES ovarian it was greater than 100 µM. Moreover, the TGI is greater than 100 µM in the experiment with SF-268 CNS; greater than 100 µM in the experiment with HL-60(TB) leukemia; greater than 100 µM in the experiment on DU-145 prostate; greater than 100 µM in the experiment with CAKI-1 renal; 85.5 µM with BT-549 breast.
As for `CC1(C)NC2C(=O)c3c([nH]c4ccccc34)[C@]3(C)CCC1CC23` (some centres not stated), the TGI in the experiment with SW-620 colon, in the experiment with ACHN renal, with NCI-H522 lung, in the experiment on K-562 leukemia, with HCC-2998 colon and with NCI/ADR-RES ovarian was greater than 100 µM each time. For the same molecule, the TGI in the experiment on SF-268 CNS, in the experiment on HL-60(TB) leukemia, in the experiment on DU-145 prostate, with CAKI-1 renal and in the experiment on BT-549 breast was greater than 100 µM throughout.
`COc1cc(/C=C2/C[C@H]3[C@@H]4CC=C5C[C@@H](O)CC[C@]5(C)[C@H]4CC[C@]3(C)NC2=O)cc(OC)c1OC`: the TGI in the experiment on SW-620 colon is greater than 100 µM; in the experiment with ACHN renal it was 58 µM; in the experiment on NCI-H522 lung, 21.7 µM; in the experiment with K-562 leukemia it was greater than 100 µM; in the experiment on HCC-2998 colon, 25.8 µM; with NCI/ADR-RES ovarian, greater than 65.2 µM. For the same molecule, the TGI in the experiment with SF-268 CNS is 23.4 µM; in the experiment on HL-60(TB) leukemia, greater than 100 µM; with DU-145 prostate it was 23.4 µM; in the experiment with CAKI-1 renal, greater than 59.9 µM; in the experiment on BT-549 breast it was 63 µM.
Regarding `CC1=NNC(N)=N/C1=C\C(Sc1ccc(Cl)cc1)c1ccc([N+](=O)[O-])cc1` (configuration not stated), the TGI with SW-620 colon, in the experiment with ACHN renal, in the experiment on NCI-H522 lung, in the experiment with K-562 leukemia, in the experiment on HCC-2998 colon and in the experiment on NCI/ADR-RES ovarian was greater than 100 µM throughout. For the same molecule, the TGI with SF-268 CNS is greater than 100 µM; with HL-60(TB) leukemia it was 76.4 µM; in the experiment with DU-145 prostate, greater than 100 µM; in the experiment with CAKI-1 renal it was greater than 100 µM; with BT-549 breast, greater than 100 µM.
On to `O=C(NI1OC(=O)c2ccccc21)c1ccc(Cl)cc1`, for which the TGI in the experiment on SW-620 colon is greater than 100 µM; with ACHN renal, greater than 100 µM; in the experiment with NCI-H522 lung, 35.2 µM; in the experiment with K-562 leukemia it was greater than 100 µM; with HCC-2998 colon, greater than 100 µM; in the experiment with NCI/ADR-RES ovarian, greater than 100 µM. In addition, the TGI in the experiment with SF-268 CNS, with HL-60(TB) leukemia, in the experiment with DU-145 prostate, in the experiment on CAKI-1 renal and in the experiment on BT-549 breast was greater than 100 µM in each case.
`O=C(c1ccc(N=Cc2ccccc2O)cc1)c1ccc(N=Cc2ccccc2O)cc1`: the TGI in the experiment on SW-620 colon, with ACHN renal, in the experiment with NCI-H522 lung, in the experiment with K-562 leukemia, with HCC-2998 colon and with NCI/ADR-RES ovarian was greater than 100 µM throughout. Moreover, the TGI in the experiment with SF-268 CNS, in the experiment on HL-60(TB) leukemia, with DU-145 prostate, in the experiment on CAKI-1 renal and with BT-549 breast was greater than 100 µM throughout.
